± gives the standard deviation of the averaged measurements.
Experiments:
[1] = compound: CC1(C)CC(=O)c2c(C(F)(F)F)nn(-c3ccc(C(N)=O)c(N[C@H]4CC[C@H](OC(=O)CN)CC4)c3)c2C1 [SNX-5422]; experiment: surviving fraction relative to DMSO-only wells; higher = less growth inhibition; conditions: exposure time: 5 days
Procedure, shortened: (§1)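 Each tumour cell line was screened three times, and only lines with replicate Pearson r >0.7 and median Z' >0.3 were kept. Cells in log phase were seeded at 250–500 per well in 384-well plates, left 24 hours, then exposed continuously for five days to inhibitors at 0.5, 1, 5, 10, 50, 100, 500 and 1000 nM. Viability was read as CellTiter-Glo luminescence, with surviving fraction normalised to the median of DMSO-only wells.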

[2] = compound: Cn1cc(C2=Nc3cc(NC(=O)C(N)C4CCCCC4)cc4c3C2=CNNC4=O)cn1; experiment: as above; conditions: exposure time: 5 days
Procedure, shortened: as §1

Test System	surviving fraction ([1]; 0.5 nM)	surviving fraction ([1]; 1 nM)	surviving fraction ([1]; 5 nM)	surviving fraction ([1]; 10 nM)	surviving fraction ([1]; 50 nM)	surviving fraction ([1]; 100 nM)	surviving fraction ([1]; 500 nM)	surviving fraction ([1]; 1000 nM)	surviving fraction ([2]; 0.5 nM)	surviving fraction ([2]; 1 nM)	surviving fraction ([2]; 5 nM)	surviving fraction ([2]; 10 nM)	surviving fraction ([2]; 50 nM)	surviving fraction ([2]; 100 nM)	surviving fraction ([2]; 500 nM)	surviving fraction ([2]; 1000 nM)
SIHA CERVIX	1.11 ± 0.1	1.1 ± 0.096	1.21 ± 0.055	1.23 ± 0.095	0.423 ± 0.034	0.262 ± 0.002	0.2 ± 0.0087	0.188 ± 0.0084	1.053 ± 0.0049	0.972 ± 0.02	1.06 ± 0.086	1.06 ± 0.043	1.02 ± 0.05	1.05 ± 0.07	0.917 ± 0.059	0.524 ± 0.024
LM7 BONE	1 ± 0.11	0.896 ± 0.075	0.946 ± 0.059	0.904 ± 0.077	0.294 ± 0.028	0.176 ± 0.0099	0.0897 ± 0.0035	0.0873 ± 0.01	0.979 ± 0.073	0.898 ± 0.06	1.04 ± 0.07	1.01 ± 0.11	0.826 ± 0.017	0.651 ± 0.033	0.119 ± 0.015	0.0753 ± 0.0038
ASKA SYNOVIAL	0.957 ± 0.041	0.967 ± 0.015	0.963 ± 0.035	0.883 ± 0.062	0.461 ± 0.05	0.233 ± 0.01	0.231 ± 0.0067	0.293 ± 0.0035	0.985 ± 0.08	1 ± 0.075	0.98 ± 0.028	0.992 ± 0.048	0.65 ± 0.054	0.355 ± 0.028	0.174 ± 0.013	0.229 ± 0.0066
MG63 BONE	1.04 ± 0.035	1.03 ± 0.047	1.09 ± 0.037	1.11 ± 0.053	0.496 ± 0.026	0.351 ± 0.029	0.13 ± 0.0085	0.136 ± 0.013	0.99 ± 0.033	1.02 ± 0.021	1.03 ± 0.024	1.05 ± 0.047	1.02 ± 0.058	0.822 ± 0.0046	0.0643 ± 0.0084	0.101 ± 0.011
22RV1 PROSTATE	1.06 ± 0.047	1.11 ± 0.056	1.06 ± 0.037	0.941 ± 0.056	0.169 ± 0.018	0.13 ± 0.022	0.0763 ± 0.014	0.0823 ± 0.0091	1.07 ± 0.021	1.08 ± 0.059	0.99 ± 0.015	1.01 ± 0.02	1.03 ± 0.054	0.854 ± 0.037	0.626 ± 0.064	0.489 ± 0.029
HCC1954 BREAST	0.8303 ± 0.0039	0.93 ± 0.028	0.873 ± 0.042	0.762 ± 0.06	0.151 ± 0.0095	0.109 ± 0.0067	0.0587 ± 0.0011	0.062 ± 0.0021	0.772 ± 0.092	0.584 ± 0.042	0.927 ± 0.019	0.889 ± 0.035	0.571 ± 0.011	0.6015 ± 0.0014	0.1713 ± 0.0011	0.0897 ± 0.0074
HS57T BREAST	1.1 ± 0.014	1.09 ± 0.046	1.15 ± 0.034	1.13 ± 0.034	0.215 ± 0.011	0.22 ± 0.016	0.127 ± 0.0093	0.126 ± 0.0052	1.04 ± 0.02	1.09 ± 0.027	1.11 ± 0.019	1.08 ± 0.047	0.967 ± 0.07	0.72 ± 0.027	0.097 ± 0.0087	0.0793 ± 0.0038
VCAP PROSTATE	1.13 ± 0.051	1.03 ± 0.057	1.08 ± 0.081	1.15 ± 0.086	0.279 ± 0.024	0.141 ± 0.0038	0.165 ± 0.0055	0.161 ± 0.013	1.04 ± 0.058	1.13 ± 0.12	1.14 ± 0.033	1.16 ± 0.081	0.969 ± 0.051	0.97 ± 0.032	0.254 ± 0.059	0.113 ± 0.0095
CAL72 BONE	1.033 ± 0.0045	1.06 ± 0.022	1.077 ± 0.01	1.08 ± 0.046	0.208 ± 0.027	0.294 ± 0.038	0.0867 ± 0.014	0.0977 ± 0.0057	1.04 ± 0.03	1.02 ± 0.038	1.02 ± 0.019	1.02 ± 0.04	0.937 ± 0.052	0.836 ± 0.043	0.111 ± 0.011	0.147 ± 0.01
OSHN BONE	1.1 ± 0.024	1.11 ± 0.036	1.11 ± 0.012	1.1 ± 0.018	0.842 ± 0.067	0.162 ± 0.0064	0.138 ± 0.0047	0.136 ± 0.0076	1.05 ± 0.044	1.077 ± 0.001	1.05 ± 0.018	1.062 ± 0.0075	0.959 ± 0.021	0.924 ± 0.017	0.0477 ± 0.0023	0.0277 ± 0.00058
SAOS2 BONE	1.15 ± 0.034	1.14 ± 0.075	1.16 ± 0.029	1.15 ± 0.027	0.123 ± 0.015	0.0737 ± 0.0011	0.076	0.0853 ± 0.0029	1.1493 ± 0.00058	1.08 ± 0.049	1.073 ± 0.0011	1.17 ± 0.077	0.882 ± 0.065	0.728 ± 0.03	0.113 ± 0.017	0.0473 ± 0.0046
HUO3N1 BONE	0.99 ± 0.02	1.03 ± 0.021	1.07 ± 0.032	1.1 ± 0.06	0.767 ± 0.023	0.503 ± 0.026	0.391 ± 0.02	0.319 ± 0.0095	1.01 ± 0.021	0.991 ± 0.062	1.02 ± 0.039	1.03 ± 0.023	0.975 ± 0.043	0.863 ± 0.041	0.504 ± 0.024	0.319 ± 0.04
SG27 HEADNECK	1.04 ± 0.13	1.06 ± 0.13	1 ± 0.14	1.06 ± 0.079	1.68 ± 0.3	1.26 ± 0.088	0.071 ± 0.017	0.0733 ± 0.046	1.11 ± 0.17	0.979 ± 0.096	0.898 ± 0.059	1.01 ± 0.022	0.904 ± 0.12	0.917 ± 0.18	0.895 ± 0.042	0.839 ± 0.035
SCC36 HEADNECK	1.05 ± 0.13	1.11 ± 0.086	1.19 ± 0.13	1.19 ± 0.089	0.434 ± 0.067	0.27 ± 0.041	0.0367 ± 0.0064	0.039 ± 0.004	0.976 ± 0.11	0.979 ± 0.038	1.07 ± 0.062	1.05 ± 0.12	0.753 ± 0.026	0.678 ± 0.045	0.282 ± 0.037	0.19 ± 0.025

From the supplement of paper PMC6045584
